{"source": "patent US20040176467A1", "about": "“Method of preventing or reducing the occurrence of symptoms of psychosis” (priority 2004, published 2004)", "key": {"behavioral sensitization": {"system": "behavioral sensitization", "conditions": "later challenge; cited from earlier work"}, "rat locomotion": {"system": "rat locomotion", "conditions": "cited from earlier work; for effect on rat locomotion: D3 antagonists; for effect on locomotion at higher doses: significant D2 receptor occupancy or activation; for effect on locomotion at low doses: devoid of significant D2 receptor occupancy"}, "schizophrenia patients": {"system": "schizophrenia patients", "conditions": "cited from earlier work"}, "[1]": {"system": "stereotyped behaviors induced by apomorphine and dizocilipine", "conditions": "preclinical models of antipsychotic drug efficacy; cited from earlier work"}, "[2]": {"system": "D3 knockout and wild type mice", "conditions": "habituated animals; cited from earlier work"}, "[3]": {"target": "D3 dopamine receptor (D3/D2) (Homo sapiens, UniProt P35462)", "sequence (P35462 whole entry)": "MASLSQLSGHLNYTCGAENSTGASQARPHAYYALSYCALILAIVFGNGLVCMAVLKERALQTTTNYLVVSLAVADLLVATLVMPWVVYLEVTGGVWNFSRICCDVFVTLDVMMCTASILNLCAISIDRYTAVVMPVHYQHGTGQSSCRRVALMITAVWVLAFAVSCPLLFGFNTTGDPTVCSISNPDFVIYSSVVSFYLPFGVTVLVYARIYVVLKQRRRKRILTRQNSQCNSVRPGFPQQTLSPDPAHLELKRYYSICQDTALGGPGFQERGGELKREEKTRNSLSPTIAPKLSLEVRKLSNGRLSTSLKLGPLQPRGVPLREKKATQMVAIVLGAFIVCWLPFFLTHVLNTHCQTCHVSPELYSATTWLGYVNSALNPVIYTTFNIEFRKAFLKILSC", "conditions": "cited from earlier work"}, "D2 receptors": {"target": "D2 receptors (Homo sapiens, UniProt P14416)", "sequence (P14416 whole entry)": "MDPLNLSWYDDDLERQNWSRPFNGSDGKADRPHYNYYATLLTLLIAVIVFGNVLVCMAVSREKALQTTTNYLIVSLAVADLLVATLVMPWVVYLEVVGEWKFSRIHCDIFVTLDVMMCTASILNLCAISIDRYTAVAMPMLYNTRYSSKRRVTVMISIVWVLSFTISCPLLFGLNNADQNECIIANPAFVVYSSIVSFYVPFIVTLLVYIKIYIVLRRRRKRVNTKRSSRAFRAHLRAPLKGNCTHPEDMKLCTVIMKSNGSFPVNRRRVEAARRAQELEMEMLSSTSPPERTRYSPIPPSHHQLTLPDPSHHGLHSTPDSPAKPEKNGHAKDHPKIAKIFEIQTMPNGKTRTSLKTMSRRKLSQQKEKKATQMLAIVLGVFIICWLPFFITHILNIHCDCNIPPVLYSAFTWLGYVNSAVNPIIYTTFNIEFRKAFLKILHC", "assay": "biochemical", "conditions": "read-out: occupancy for D2"}, "[4]": {"system": "neurons in substantia nigra (SN), ventral tegmentum (VTA), and nucleus accumbens (NA)", "conditions": "cited from earlier work"}, "[5]": {"system": "locomotor sensitization to amphetamine", "assay": "locomotor sensitization to amphetamine", "format": "in vivo"}, "D2 receptor": {"system": "D2 receptor", "conditions": "dose that inhibits sensitization; cited from earlier work"}}}
{"smiles": "O=C(CCCN1CCC(O)(c2ccc(Cl)cc2)CC1)c1ccc(F)cc1", "note": "[haloperidol]", "values": [{"measurement": "sensitization after repetitive treatment", "setting": "behavioral sensitization", "value": "results in sensitization to later challenge by cocaine, amphetamine, or the dopamine agonist apomorphine"}]}
{"smiles": "CCCN[C@@H]1CCc2c(OC)cccc2[C@@H]1C", "note": "[(+)-AJ 76]", "values": [{"measurement": "effect on rat locomotion", "setting": "rat locomotion", "value": "stimulate rat locomotion"}]}
{"smiles": "CCCN(CCC)[C@@H]1CCc2c(OC)cccc2[C@@H]1C", "note": "[(+)-UH 232]", "values": [{"measurement": "effect on rat locomotion", "setting": "rat locomotion", "value": "stimulate rat locomotion"}, {"measurement": "effect on psychotic symptoms", "setting": "schizophrenia patients", "value": "further worsened positive psychotic symptoms"}]}
{"smiles": "CCCN(CCC)C1Cc2cc(OC)c(OC)cc2C1", "note": "[U99194A]", "values": [{"measurement": "effect on rat locomotion", "setting": "rat locomotion", "value": "stimulate rat locomotion"}]}
{"smiles": "CCCN1CCO[C@@H]2c3cc(O)ccc3OC[C@H]21", "note": "[PD 128907]", "values": [{"measurement": "effect on stereotyped behaviors induced by apomorphine and dizocilipine", "setting": "[1]", "value": "effectively inhibits"}, {"measurement": "difference in hypolocomotor behavioral response between D3 knockout and wild type mice", "setting": "[2]", "value": "Neither laboratory found a significant difference"}, {"measurement": "effect on locomotion at higher doses", "setting": "rat locomotion", "value": "stimulation of locomotion"}, {"measurement": "effect on locomotion at low doses", "setting": "rat locomotion", "value": "inhibition of spontaneous locomotion"}]}
{"smiles": "CCN1CCCC1CNC(=O)c1cc(S(N)(=O)=O)ccc1OC", "note": "(stereo not shown) [sulpiride]", "values": [{"measurement": "D2/D3 affinity ratio", "setting": "[3]", "value": 2}, {"measurement": "sensitization after repetitive treatment", "setting": "behavioral sensitization", "value": "results in sensitization to cocaine"}]}
{"smiles": "NCCc1ccc(O)c(O)c1", "note": "[dopamine]", "values": [{"measurement": "receptor occupancy at 0.75 µM", "setting": "D2 receptors", "value": 27, "unit": "%"}]}
{"smiles": "CCCN(CCC)C1CCc2ccc(O)cc2C1", "note": "(stereo not shown) [7-OH-DPAT, 7-hydroxy-N,N-di-n-propyl-2-aminotetralin]", "values": [{"measurement": "difference in hypolocomotor behavioral response between D3 knockout and wild type mice", "setting": "[2]", "value": "Neither laboratory found a significant difference"}, {"measurement": "effect on locomotion at higher doses", "setting": "rat locomotion", "value": "stimulation of locomotion"}, {"measurement": "effect on locomotion at low doses", "setting": "rat locomotion", "value": "inhibition of spontaneous locomotion"}, {"measurement": "effect on locomotion after micro-injection", "setting": "rat locomotion; micro-injection into rat nucleus accumbens, also systemic administration in mice", "value": "inhibition of locomotion"}, {"measurement": "effect on neuronal firing rate", "setting": "[4]", "value": "inhibits neuronal firing rate"}, {"measurement": "behavioral response to the D3 agonist after a sensitizing regimen of amphetamine", "setting": "[5]; following a sensitizing regimen of amphetamine", "value": "decreased behavioral response"}]}
{"smiles": "O=C(NCCCCN1CCN(c2cccc(Cl)c2Cl)CC1)c1ccc2c(c1)Cc1ccccc1-2", "note": "[NGB 2904]", "values": [{"measurement": "preference (selectivity) for D3/D2", "setting": "[3]", "value": 155, "unit": "fold"}]}
{"smiles": "N#Cc1ccc2c(c1)[C@H]1CN(CCCCNC(=O)c3ccc(-c4ccccc4)cc3)C[C@@H]1CO2", "note": "[S33084]", "values": [{"measurement": "preference (selectivity) for D3/D2", "setting": "[3]", "value": 100, "unit": "fold"}]}
{"smiles": "CCCCN1CCCC1CNC(=O)c1cc(C#N)c2ccccc2c1OC", "note": "(stereo not shown) [nafadotride]", "values": [{"measurement": "preference (selectivity) for D3/D2", "setting": "[3]", "value": 10, "unit": "fold"}, {"measurement": "D2 receptor occupancy at the dose used", "setting": "D2 receptor", "value": "devoid of appreciable D2 receptor occupancy"}, {"measurement": "effect on rat locomotion", "setting": "rat locomotion", "value": "stimulate rat locomotion"}, {"measurement": "effect on locomotor sensitization to amphetamine", "setting": "[5]; dose devoid of appreciable D2 receptor occupancy", "value": "inhibition of locomotor sensitization to amphetamine"}]}
{"smiles": "CCCN1CCCC(c2cccc(O)c2)C1", "note": "(single isomer, unassigned; (-)) [(−)-3PPP, (−)-3-(3-hydroxyphenyl)-N-n-propylpiperidine]", "values": [{"measurement": "effect on psychotic symptoms", "setting": "schizophrenia patients", "value": "improved psychotic symptoms in schizophrenia patients for up to one week"}]}
